Here are results for two compounds from patent publication US20260027128A1 (priority 2016, published 2026).

For orientation: NOAEL means the highest tested level that showed no adverse finding. In general, AUC(0-t) refers to the area under the concentration-time curve up to a stated or last time point. Lower therefore signals low exposure. The bioavailability is the share of a dose that reaches the circulation, judged against a reference dose that is usually intravenous. For orientation: Tmax means the time from dosing to the highest level. By Cmax is commonly meant the peak of the concentration-time curve.

Data set [1] in a line: Plasma analysis and pharmacokinetics in Gottingen minipigs after intranasal administration (Example 4). Conditions: for bioavailability: Bioavailability (0-tlast), intranasal, minipig No. 2; for Cmax: Cmax of Remimazolam.
Data set [2] deals with Gottingen minipigs. In words: Systemic and local tolerability (clinical signs, rhinoscopy, NOAEL) in Gottingen minipigs, single intranasal administration (Example 4). The settings on record: minipigs.
Experiment in data set [3]: as above
Conditions: female, Gottingen, minipig, in vivo, inhaled or intranasal, 25 mg/animal.

The conditions of data set [4]: study 32236, female minipigs, intravenous infusion 120 mg/kg; cited from earlier work.
The nature of data set [5]: Plasma levels of Remimazolam and its main metabolite CNS7054 in rats (Example 1).
The nature of data set [6]: Solubility of remimazolam in inhalation vehicle (Example 2). Conditions: concentrations >25 mg/mL.
Data set [7] has as its system Gottingen minipigs. In words: Sedative effect score in Gottingen minipigs after single intranasal administration (Example 4). It counts as in vivo, minipig.
For data set [8] the following is noted: study Y08AG004, micropigs, cited from earlier work.
Data set [9] concerns male rats. In words: Clinical observations in rats after intranasal or IV remimazolam (Example 1). The format is in vivo, rat. Conditions: intranasal dosing.
The subject of data set [10] is male rats. The data set is described as follows: Tolerability in rats: mortality, body weight, Irwin observations, body temperature, pupil size, gross pathology (Example 1).
Where [11] appears, read: intranasal 25 mg Remimazolam/animal.
[12] abbreviates: minipig animal no. 2, intranasal 25 mg.

Where two headings read alike, the source gives them in different places. Bounds are passed on as bounds.

Consider `Cc1cnc2n1-c1ccc(Br)cc1C(c1ccccn1)=N[C@H]2CCC(=O)O` [CNS7054], for which the “tmax of the metabolite (CNS7054)” value turned out to be 15 min in data set [1] (minipig animal no. 2, intranasal 25 mg Remimazolam); 60 min in data set [1] (minipig animal nos. 1 and 3, intranasal 25 mg Remimazolam). Moreover, the “Plasma level of metabolite CNS7054, GLP-validated method” value in data set [1] (minipigs, intranasal 25 mg Remimazolam, below LLOQ) is under 100 ng/mL.
As for `COC(=O)CC[C@@H]1N=C(c2ccccn2)c2cc(Br)ccc2-n2c(C)cnc21` [Remimazolam, methyl 3-[(4S)-8-bromo-1-methyl-6-(pyridin-2-yl)-4H-imidazo[1,2-a][1,4]benzodiazepin-4-yl]propanoate], in the data set with Gottingen minipigs [2] (dry drug product powder into one nostril), the “NOAEL for local tolerability (nasal mucosa)” value is recorded as at least 25 mg/animal. Also, in the data set on Gottingen minipigs [2] (setting [11]), the Body weight result is “No test item-related influence on the body weight was observed”. The Clinical signs entry in the data set with Gottingen minipigs [2] (setting [11]) was “No test item-related changes in behavior (except for sedation, see below) or external appearance were observed”. Also, the “Food and drinking water consumption” value in the data set with Gottingen minipigs [2] (setting [11]) is “No test item-related influence was noted”. For the same compound, the Mortality entry in the data set with Gottingen minipigs [2] (setting [11]) is given as “None of the animals died”. For the same compound, in the data set on Gottingen minipigs [2] (nasal 25 mg Remimazolam/animal), the “Rhinoscopy: changes of the nasal mucosa (erythema, eschar or oedema formation)” value was “No test item-related changes of the nasal mucosa”. In data set [3], this compound yielded an NOAEL of at least 1.25 mg/kg. In addition, the AUC0-last in data set [4] was 18215.23 ng·h/mL. Besides, the AUC0-last/Dose in data set [4] is 151.79 ng·kg·h/mL/mg; in data set [1] (present study (33659), minipig No. 2, intranasal 1.25 mg/kg), 15.94^1 ng*h*kg/ml/mg. In addition, the “Systemic exposure following intranasal administration” value in data set [5] was “systemically exposed”. Moreover, the AUC(0-t) in data set [1] (female, Gottingen, minipig, plasma, inhaled or intranasal, 1.25 mg/kg, AUC0-last, present study (33659), minipig No. 2 (bw 20 kg), intranasal 1.25 mg/kg) is 19.9 ng·h/mL; in data set [1] (female, Gottingen, minipig, plasma, inhaled or intranasal, 25 mg, AUC0->last of Remimazolam, minipig animal no. 2, intranasal 25 mg), about 20 ng·h/mL; in data set [1] (female, Gottingen, minipig, plasma, inhaled or intranasal, 25 mg, AUC0->last of Remimazolam, minipig animal no. 3, intranasal 25 mg) it was 7 ng·h/mL. Further, the bioavailability is 5.43% in [1] (female, Gottingen, minipig, plasma, inhaled or intranasal, 1.25 mg/kg, reference Y08AG004 bolus (micropigs)); 5.63% in [1] (female, Gottingen, minipig, plasma, inhaled or intranasal, 1.25 mg/kg, reference Y08AG004 infusion (micropigs)); 10.5% in data set [1] (female, Gottingen, minipig, plasma, other: intranasal, 1.25 mg/kg, reference study 32236 (IV infusion, minipigs)); 10% in data set [1] (female, Gottingen, minipig, plasma, other: intranasal, 25 mg/animal, reference study 32236 (IV infusion, minipigs)). Also, the Tmax in data set [1] (female, Gottingen, minipig, plasma, inhaled or intranasal, 25 mg) is 15 min. In addition, the Cmax is 17.4 ng/mL in data set [1] (female, Gottingen, minipig, plasma, inhaled or intranasal, 25 mg, minipig animal no. 1, intranasal 25 mg, extrapolated below LLOQ); 50.4 ng/mL in data set [1] (female, Gottingen, minipig, plasma, inhaled or intranasal, 25 mg, minipig animal no. 2, intranasal 25 mg, within GLP-validated range); at most 8.6 ng/mL in data set [1] (female, Gottingen, minipig, plasma, inhaled or intranasal, 25 mg, minipig animal no. 3, intranasal 25 mg, extrapolated below LLOQ). This compound showed a concentration at 0.25 h in [1] (female, Gottingen, minipig, plasma, other: intranasal, 25 mg/animal) of 50.4 ng/mL. Besides, the “Plasma level of Remimazolam (CNS7056), GLP-validated method” value in [1] (minipigs, intranasal 25 mg, all samples except animal no. 2 at 0.25 hours p.a., below LLOQ) was under 20 ng/mL. For the same compound, the “Solubility in a reasonable inhalation vehicle” value in data set [6] is recorded as “could not be tested due to lack of solubility in a reasonable vehicle”. The “Sedative effects lasting up to” value with Gottingen minipigs [7] (setting [12]) is on record as “up to 30 minutes”. Moreover, the “Start of sedative effects after administration” value in the data set on Gottingen minipigs [7] (setting [12]) stood at 5 min. Moreover, the “Time of maximum sedative effect” value in the data set on Gottingen minipigs [7] (setting [12]) is given as 10 minutes p.a. In the data set on Gottingen minipigs [7] (minipig animal nos. 1 and 3, intranasal 25 mg, scores of zero recorded), the Sedative effect result was “not affected”. Also, the “AUC0-last (data are for 0→∞)” value in [8] (intravenous bolus 1 mg/kg) was 293.3^2 ng*h/ml; in [8] (intravenous infusion 2.4 mg/kg), 676.7^2 ng*h/ml. The entries for the “AUC0-last/Dose (data are for 0→∞)” value in data set [8] (intravenous bolus 1 mg/kg) and in data set [8] (intravenous infusion 2.4 mg/kg) were 293.3^2 ng*h*kg/ml/mg and 282.9^2 ng*h*kg/ml/mg, respectively. Moreover, the “Time clinical observations were present following dosing” value in the data set on male rats [9] was “up to 15 min”. In addition, in the data set on male rats [10] (male rats, Part B necropsy), the Gross pathology entry is reported as “No test item-related gross findings were noted”. For the same compound, the “Tolerability of intranasal administration” value in the data set with male rats [10] (rats) is reported as “well tolerated”.
